Like-named read-outs stand apart in the source and are kept apart here. Blank lines part the entries; values can stand above or below the compound they belong to.
What was measured:
[1] = system: Arc mRNA expression in mouse hippocampus; assay: Arc mRNA expression in hippocampus (RT-PCR, PD marker); format: in vivo; settings: 90 min after treatment
Protocol: For in vivo pharmacodynamics (PD) marker analysis, mice were sacrificed by decapitation at 90 min after administration of Compound A or Compound B. Hippocampal tissues were isolated from the brain. These tissues were stored at -80° C. until RNA extraction. Total RNA from individual tissues was extracted using QIAzol Lysis Reagent and the RNeasy kit (Quiagen, Hilden, Germany) following the manufacturer's instruction. RT-PCR was carried out using ABI PRISM 7900HT sequence detection system (Life Technologies, Bedford, MA) and TagMan reagents (Eurogentec, Seraing, Belgium). RNA quantities were normalized using glyceraldehyde-3-phosphate dehydrogenase (GAPDH) mRNA transcripts according to manufacturer's instruction. The following primers were used for mouse Arc analysis: forward primer, [NT] ID NO:3); reverse primer, [NT] ID NO:4), TagMan probe, [NT] ID NO:5). The primers used for mouse Gapdh analysis were TagMan Rodent GAPDH Control Reagent, VIC probe, purchased from ABI (Applied biosystems-Life Technologies, Waltham, MA).

[2] = target: T1, M5R (Homo sapiens, UniProt P08912); assay: Ca2+ flux assay in CHO-K1 cells expressing human M5R; format: cell-based; parameters: expressed in transfected cells; host or cells: CHO-K1; settings: read-out: IP for M5R
T1 sequence (P08912 1-532): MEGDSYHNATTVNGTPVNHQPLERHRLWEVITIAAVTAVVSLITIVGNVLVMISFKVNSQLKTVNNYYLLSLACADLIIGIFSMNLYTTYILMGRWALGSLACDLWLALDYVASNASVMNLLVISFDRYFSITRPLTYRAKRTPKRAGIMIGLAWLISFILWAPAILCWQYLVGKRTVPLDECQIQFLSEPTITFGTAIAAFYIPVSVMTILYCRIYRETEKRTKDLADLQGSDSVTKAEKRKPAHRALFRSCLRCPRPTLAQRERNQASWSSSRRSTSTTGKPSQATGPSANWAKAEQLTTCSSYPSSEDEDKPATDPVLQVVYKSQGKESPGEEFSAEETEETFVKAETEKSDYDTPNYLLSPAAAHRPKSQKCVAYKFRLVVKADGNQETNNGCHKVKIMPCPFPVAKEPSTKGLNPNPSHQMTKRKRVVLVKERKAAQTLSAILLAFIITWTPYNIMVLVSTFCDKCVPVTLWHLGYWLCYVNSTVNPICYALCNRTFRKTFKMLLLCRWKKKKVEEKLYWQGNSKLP

[3] = Plasma and brain concentration in samples of in vivo IP1 assay; parameters: species or system mouse; settings: for concentration at 3 h: mouse, oral, mean±SD
Protocol: Plasma and brain concentration of Compound D in sample of in vivo IP1 assay at 3 h after oral treatment. Results represent the mean±SD. n=10 per group.
Plasma and brain concentration of Compound C in sample of in vivo IP1 assay at 3 h after oral treatment. Results represent the mean±SD. n=10 per group.

[4] = target: T2, human M1R (Homo sapiens, UniProt P11229); assay: Ca2+ flux assay in CHO-K1 cells expressing human M1 receptors (EC20 ACh); format: cell-based; parameters: expressed in transfected cells; settings: for EC50: potentiating EC20 ACh, read-out: IP value for human M1R
T2 sequence (P11229 1-460): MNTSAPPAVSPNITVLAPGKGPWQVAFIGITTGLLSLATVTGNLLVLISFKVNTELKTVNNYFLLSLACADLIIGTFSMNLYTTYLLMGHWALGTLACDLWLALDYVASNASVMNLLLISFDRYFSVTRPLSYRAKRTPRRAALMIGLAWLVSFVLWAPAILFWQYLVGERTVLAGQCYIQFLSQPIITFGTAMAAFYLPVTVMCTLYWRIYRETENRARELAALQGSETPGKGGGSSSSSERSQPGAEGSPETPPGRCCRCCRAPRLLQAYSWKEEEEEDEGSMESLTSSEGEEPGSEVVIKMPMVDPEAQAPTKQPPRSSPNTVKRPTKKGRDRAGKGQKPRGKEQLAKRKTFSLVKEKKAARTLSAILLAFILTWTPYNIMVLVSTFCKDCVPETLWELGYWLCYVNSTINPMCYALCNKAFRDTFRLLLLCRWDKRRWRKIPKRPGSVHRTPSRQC
Protocol: CHO-K1 cells expressing human M1 receptors were plated on a 96-well black clear bottom plate (Corning, New York, NY) at 30,000 cells/well, and cultured at 37° C. and 5% CO2 for 1 day. The medium was removed and the cells were incubated with calcium dye buffer (HBSS (Life Technologies, Carlsbad, CA), 20 mM HEPES (Life Technologies), 0.1% fatty acid-free BSA (Wako), 0.08% pluronic F127 (Dojindo Laboratories, Kumamoto, Japan), 2.5 μg/mL Fluo-4 (Dojindo Laboratories), 1.25 mM probenecid (Dojindo Laboratories)) for 30 min at 37° C. and 5% CO2. After 30 min incubation at room temperature, the cells were stimulated with various concentrations of test compounds dissolved in assay buffer (HBSS (Life Technologies), 20 mM HEPES (Life Technologies), 0.1% fatty acid-free BSA (Wako)) containing EC20 concentrations (0.8-1 nM) of ACh and Ca^2+ response was measured using CeilLux (PerkinElmer). For determination of positive allosteric modulation activity of M1PAMs, the response to EC20 ACh was set as the 0% response and the response to 10 μM ACh was set as the 100% response. The potency of M1PAMs was shown as the value of inflection point (IP). IP value and 95% confidence intervals were calculated by XLfit of GraphPad Prism 5 Software (GraphPad Software Inc., LaJolla, CA, USA) from the data expressed as % of control.

SMILES: Cn1cc(-c2ccc(CN3Cc4cccc(Oc5c(F)cccc5C#N)c4C3=O)cc2)cn1 [Compound B, 3-fluoro-2-((2-(4-(1-methyl-1H-pyrazol-4-yl)benzyl)-3-oxo-2,3-dihydro-1H-isoindol-4-yl)oxy)benzonitrile]
increase in Arc mRNA expression level in mouse hippocampus ([1]; 10-100 mg/kg p.o.): about 2 fold

SMILES: Cn1ccc(-c2ccc(CN3Cc4cccc(O[C@H]5CCCC[C@@H]5O)c4C3=O)cc2)n1 [Compound A, 7-(((1S,2S)-2-hydroxycyclohexyl)oxy)-2-(4-(1-methyl-1H-pyrazol-3-yl)benzyl)isoindolin-1-one]
Arc mRNA expression level in mouse hippocampus ([1]; 30 mg/kg p.o.): significant increase | Arc mRNA expression level in mouse hippocampus ([1]; 3-30 mg/kg p.o.): enhanced the expression level of Arc mRNA in a dose-dependent manner

SMILES: Cn1cc(-c2ccc(Cc3cc4c(=O)n([C@H]5CCCC[C@@H]5O)cnc4c4ccccc34)cn2)cn1 [Compound C, 3-((1S,2S)-2-hydroxycyclohexyl)-6-((6-(1-methyl-1H-pyrazol-4-yl)pyridin-3-yl)methyl)benzo[h]quinazoline-4(3H)-one, reference compound]
EC50 [2]: > 1000 nM | differences in brain concentration between wild-type and M1R KO mice ([3]; 10 mg/kg p.o.): No significant differences | concentration at 3 h ([3]; brain, 10 mg/kg, 10 mg/kg p.o., M1KO mice, read-out: Brain concentration): 62.7 ± 9.1 ng/g | concentration at 3 h ([3]; brain, 10 mg/kg, 10 mg/kg p.o., wild-type mice, read-out: Brain concentration): 63.7 ± 16.8 ng/g | concentration at 3 h ([3]; plasma, 10 mg/kg, 10 mg/kg p.o., M1KO mice, read-out: Plasma concentration): 6130 ± 1160 ng/mL | concentration at 3 h ([3]; plasma, 10 mg/kg, 10 mg/kg p.o., wild-type mice, read-out: Plasma concentration): 2340 ± 628 ng/mL | EC50 [4]: 0.62 nM

EC50 [2]: > 10000 nM | differences in PK profile between wild-type and M1R KO mice ([3]; 3 mg/kg p.o.): No significant differences | concentration at 3 h ([3]; brain, 3 mg/kg, 3 mg/kg p.o., M1KO mice, read-out: Brain concentration): 370 ± 50 ng/g | concentration at 3 h ([3]; brain, 3 mg/kg, 3 mg/kg p.o., wild-type mice, read-out: Brain concentration): 350 ± 80 ng/g | concentration at 3 h ([3]; plasma, 3 mg/kg, 3 mg/kg p.o., M1KO mice, read-out: Plasma concentration): 3260 ± 260 ng/mL | concentration at 3 h ([3]; plasma, 3 mg/kg, 3 mg/kg p.o., wild-type mice, read-out: Plasma concentration): 3110 ± 490 ng/mL | EC50 [4]: 2.7 nM | M1R selectivity over other human muscarinic receptor subtypes ([4]; vs M2-M5R): not less than 3700 fold
SMILES: Cc1c(Cc2ccc(-n3cccn3)cc2)cc2c(c1F)CN([C@H]1COCC[C@@H]1O)C2=O [Compound D, 4-fluoro-2-[(3S,4S)-4-hydroxytetrahydro-2H-pyran-3-yl]-5-methyl-6-[4-(1H-pyrazol-1-yl)benzyl]-2,3-dihydro-1H-isoindol-1-one]

— US12298319B2, “Method for measuring alpha value of muscarinic M1 receptor positive allosteric modulators” (Takeda Pharmaceutical Company Limited, priority 2017, dated 2025)
